Patent US20200069664A1, “METHODS FOR TREATING INFECTION” (Salix Pharmaceuticals, Ltd, priority 2010, published 2020)
“Also recorded” adds a separate entry of the source. Read-outs that look alike come from different tables or passages of the source.

Assays:
EAEC isolates [1] = assay: MMP-9 detection by gelatin zymography in EAEC isolates after rifaximin exposure; assay type: cell-based, E coli
Method: (§1) Expression of matrix metalloproteinase-9 (MMP-9) was analyzed using gelatin zymography in all viable EAEC and S. sonnei isolates growing on MacConkey agar. Isolates were suspended in 1 mL of 0.1 M phosphate buffered saline (pH 7.2) and centrifuged at 1000 g for 10 minutes at 4° C. The supernatant was subjected to gelatin zymography to detect MMP-9 activity using a modified Heussen and Dowdle protocol (9). In summary, the supernatant was diluted 1:2 in a sample buffer (125 mM Tris-HCl, pH 6.8, 20% glycerol, 4% sodium dodecyl sulfate, 0.02% bromphenol blue), and 20 μL was loaded on to a 10% SDS-PAGE gel containing 1 mg/mL gelatin. Prestained standard proteins were used as molecular weight markers. After electrophoresis, gels were rinsed with incubation buffer (2.5% triton X-100, 50 mM Tris-HCl, pH 7.4, 0.02% Brij 35, 10 mM CaCl2, 2 μM ZnCl2) for 1 hour at room temperature to remove SDS. Gels were then incubated overnight at 37° C. and subsequently stained with Coomassie brilliant blue R-250 (Thermo Fisher Scientific, Inc, Rockford, Ill.). […] Matrix metalloproteinase-9 was identified among all gelatinolytic proteins by size.

EAEC = assay: Effect of dialyzed supernatants of treated HEp-2 cells on EAEC adherence; assay type: cell-based, E. coli; conditions: HEp-2 treated 24 h with 64 mg/ml (so in the source); chambered slides with or without HEp-2 cells, 3 h
Method: Supernatant dialysis. HEp-2 cells were cultured in T-175 flasks as described above. […] After 24 h, the medium was collected, loaded into regenerated cellulose dialysis tubing (cutoff, 6 to 8 kDa; Spectra/Por, Rancho Domiguez, Calif.), and dialyzed against 4 liters of PBS changed four times. Each dialysis step lasted at least 6 h and was carried out at 4° C. Dialyzed supernatants were either used immediately in adherence assays or stored at −20° C. until use.
The effect of supernatants on EAEC adherence was determined by mixing EAEC with the dialyzed media from the different antibiotic (or control) treatment groups and adding the bacteria to HEp-2 cells cultured in chambered slides or to chambered slides with no HEp-2 cells. Adherence was visualized microscopically as described above.

S sonnei isolate [2] = assay: MMP-9 detection by gelatin zymography in S sonnei isolate after rifaximin exposure; assay type: cell-based
Method: as §1

[3] = tested on: enterotoxigenic E coli strains; assay: MIC against rifaximin by agar dilution, ETEC isolates; assay type: cell-based
From the text: (§2) Five enterotoxigenic E coli strains, 2 enteroaggregative E coli strains, and 1 S sonnei isolate were included in the study. The isolates had been identified previously from patients with TD acquired in Guadalajara, Mexico, during the summer of 2004 (5).

C difficile isolates [4] = conditions: cited from earlier work
C difficile isolates [5] = assay: In vitro susceptibility of C difficile isolates (agar dilution for rifaximin, Etest for rifampin)
HEp-2 cells = assay: Cytokine array of supernatants of treated HEp-2 cells; conditions: 64 μg/ml, 24 h; Panomics array of 36 cytokines
[6] = oral administration, healthy volunteers (Descombe et al. 1994); cited from earlier work
[7] = tested on: enteroaggregative E coli strains; assay: MIC against rifaximin by agar dilution, EAEC isolates; assay type: cell-based; conditions: 2 EAEC isolates
From the text: as §2

ETEC isolates = assay type: cell-based, E coli
EAEC strain O42 = assay type: cell-based, E. coli
EAEC isolates [8] = assay: Isolate viability after rifaximin exposure, EAEC; assay type: cell-based, E coli
S sonnei isolate [9] = assay: MIC against rifaximin by agar dilution, S sonnei isolate; assay type: cell-based
From the text: as §2

S. sonnei = S. sonnei adherence and internalization in antibiotic-pretreated HeLa cells; assay type: cell-based; conditions: vs other treatment groups
[10] = 110 C difficile isolates, 1983 to 2004
[11] = resistance = MIC≥32 μg/mL, for rifaximin b194 says 'rifaximin alone'
[12] = rifaximin 8 mg/L, exposure 4 hrs
[13] = rifaximin 8 mg/L, exposure 8 hrs
[14] = rifaximin 8 mg/L, exposure 18 hrs
[15] = rifaximin 8 mg/L, exposure 24 hrs
[16] = rifaximin 32 mg/L, exposure 4 hrs
[17] = rifaximin 32 mg/L, exposure 8 hrs
[18] = rifaximin 32 mg/L, exposure 18 hrs
[19] = rifaximin 64 mg/L, exposure 4 hrs
[20] = rifaximin 64 mg/L, exposure 8 hrs
[21] = 24 h pretreatment with 64 mg (sic; FIG. 2: 64 μg/ml)

## (2S,16Z,18E,20S,21S ,22R, 23R,24R,255,265,275,28E)-5,6,21,23,25 Pentahydroxy-27-methoxy-2,4,11,16,20,22,24,26-octamethyl-2,7-(epoxypentadeca-(1,11,13) trienimino) benzofuro (4,5-e) pyrido(1,2,-a) benzimidazole-1,15(2H)-dione,25-acetate [Rifaximin]
EAEC isolates [1]; 18-hour time point (rifaximin 8 mg/L)
  MMP-9 expression by EAEC isolates: one EAEC isolate produced MMP-9, but the other isolate did not
EAEC isolates [1]; rifaximin 8 mg/L for 4 and 8 hours
  MMP-9 expression by EAEC isolates: expressed MMP-9
EAEC isolates [1]; rifaximin 8 mg/L for 24 hours
  MMP-9 expression by EAEC isolates: undetectable
EAEC isolates [1]; rifaximin 32 or 64 mg/L for 4, 8, or 18 hours
  MMP-9 expression by EAEC isolates: undetectable
EAEC
  Adherence of EAEC mixed with dialyzed supernatants from treated HEp-2 cells: adhered poorly; also recorded: affected EAEC adherence
S sonnei isolate [2]; other time points and rifaximin concentrations
  MMP-9 in the S sonnei isolate: either undetectable or the isolate was not viable
S sonnei isolate [2]; rifaximin 8 mg/L for 4 hours
  MMP-9 in the S sonnei isolate: detectable
[3]; 2 ETEC isolates
  MIC: 128 µg/mL
[3]; 3 ETEC isolates
  MIC: 64 µg/mL
C difficile isolates [4]; 110 C difficile isolates from multiple locations
  Isolates resistant to rifaximin, based on MIC values: 2.7%
C difficile isolates [4]; [10]
  MIC50: 0.0075 µg/mL
  MIC90: 0.015 µg/mL
C difficile isolates [5]; 359 C difficile isolates
  MIC50: <0.01 µg/mL
  MIC90: 0.25 µg/mL
C difficile isolates [5]; 359 C difficile isolates, listed as rifaximin
  MIC50: < 0.01 µg/mL
C difficile isolates [5]; MIC≥32 μg/mL
  Isolates resistant to both rifampin and rifaximin, percent of 359: 2%
C difficile isolates [5]; [11]
  Resistant isolates, number of 359: 11
  Resistant isolates, percent of 359: 3%
HEp-2 cells
  Cytokines detected in supernatants of treated HEp-2 cells: detectable levels of RANTES and IL-4 only; also recorded: reduced the expression of various proinflammatory cytokines
[6]
  Systemic absorption: negligible
[7]
  MIC: 64 µg/mL
ETEC isolates; 4- and 8-hour exposure to rifaximin 8, 32, and 64 mg/L
  Expression of virulence factors (ST, LT, CS2/CS3, CS6) by ETEC isolates: expressed all examined virulence factors
ETEC isolates; 18 hours, rifaximin 8 mg/L
  Expression of virulence factors (ST, LT, CS2/CS3, CS6) by ETEC isolates: all virulence factors were expressed
ETEC isolates; 18 hours, rifaximin 32 mg/L
  Expression of virulence factors (ST, LT, CS2/CS3, CS6) by ETEC isolates: no factors were seen
ETEC isolates; 24 hours, rifaximin 8 mg/L
  Expression of virulence factors (ST, LT, CS2/CS3, CS6) by ETEC isolates: did not express any virulence factors
ETEC isolates; [12]
  Expression of CS2/CS3 in ETEC isolates: +
  Expression of CS6 in ETEC isolates: +
  Expression of LT in ETEC isolates: +
  Expression of ST in ETEC isolates: +
  Expression of ST/LT in ETEC isolates: +
ETEC isolates; [13]
  Expression of CS2/CS3 in ETEC isolates: +
  Expression of CS6 in ETEC isolates: +
  Expression of LT in ETEC isolates: +
  Expression of ST in ETEC isolates: +
  Expression of ST/LT in ETEC isolates: +
ETEC isolates; [14]
  Expression of CS2/CS3 in ETEC isolates: +
  Expression of CS6 in ETEC isolates: +
  Expression of LT in ETEC isolates: +
  Expression of ST in ETEC isolates: +
  Expression of ST/LT in ETEC isolates: +
ETEC isolates; [15]
  Expression of CS2/CS3 in ETEC isolates: −
  Expression of CS6 in ETEC isolates: −
  Expression of LT in ETEC isolates: −
  Expression of ST in ETEC isolates: −
  Expression of ST/LT in ETEC isolates: −
ETEC isolates; [16]
  Expression of CS2/CS3 in ETEC isolates: +
  Expression of CS6 in ETEC isolates: +
  Expression of LT in ETEC isolates: +
  Expression of ST in ETEC isolates: +
  Expression of ST/LT in ETEC isolates: +
ETEC isolates; [17]
  Expression of CS2/CS3 in ETEC isolates: +
  Expression of CS6 in ETEC isolates: +
  Expression of LT in ETEC isolates: +
  Expression of ST in ETEC isolates: +
  Expression of ST/LT in ETEC isolates: +
ETEC isolates; [18]
  Expression of CS2/CS3 in ETEC isolates: −
  Expression of CS6 in ETEC isolates: −
  Expression of LT in ETEC isolates: −
  Expression of ST in ETEC isolates: −
  Expression of ST/LT in ETEC isolates: −
ETEC isolates; [19]
  Expression of CS2/CS3 in ETEC isolates: +
  Expression of CS6 in ETEC isolates: +
  Expression of LT in ETEC isolates: +
  Expression of ST in ETEC isolates: +
  Expression of ST/LT in ETEC isolates: +
ETEC isolates; [20]
  Expression of CS2/CS3 in ETEC isolates: +
  Expression of CS6 in ETEC isolates: +
  Expression of LT in ETEC isolates: +
  Expression of ST in ETEC isolates: +
  Expression of ST/LT in ETEC isolates: +
EAEC strain O42
  EAEC adherence to pretreated HEp-2 cells, quantified by CFU: significantly lower; also recorded: reduced EAEC adherence
EAEC strain O42; [21]
  EAEC adherence to A549 cells: significantly reduced
  EAEC adherence to HCT-8 cells: not significant
  EAEC adherence to HEp-2 cells: significantly reduced
  EAEC adherence to HeLa cells: significantly reduced
EAEC strain O42; HEp-2 cells pretreated 24 h, washed, EAEC 3 h, Wright-Giemsa staining
  EAEC O42 adherence to pretreated HEp-2 cells (microscopy, stacked-brick pattern): greatly reduced
EAEC strain O42; after 3 h incubation with pretreated HEp-2 cells
  EAEC bacterial counts in the supernatants (viability): No differences; also recorded: without affecting EAEC viability
EAEC isolates [8]; rifaximin 8 mg/L for 24 hours
  EAEC viability: viable
EAEC isolates [8]; rifaximin 8, 32, and 64 mg/L at 4, 8, and 18 hours
  EAEC viability: viable
EAEC isolates [8]; rifaximin 32 and 64 mg/L for 24 hours
  EAEC viability: no viable isolates were recovered; also recorded: not viable
S sonnei isolate [9]
  MIC: 16 µg/mL
S. sonnei
  S. sonnei attachment: no effect
  S. sonnei internalization: no effect
